# Tests used:
# Assay in all cases: relative viability (nuclei count vs DMSO), 5 days (fraction); higher = more cells survive
# Tozasertib = compound: Cc1cc(Nc2cc(N3CCN(C)CC3)nc(Sc3ccc(NC(=O)C4CC4)cc3)n2)n[nH]1 [Tozasertib]
# In short: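 Viability was read as treated-well nuclei divided by vehicle-well nuclei, using the median across plates. Lung cancer cell lines in 1536-well plates were kept overnight at 37 °C, pinned with five √10-spaced library-drug doses, and after 5 days were Hoechst-stained, imaged at 4× and counted in MetaXpress. Plates passed only with control CV below 25% and at least one doubling.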
# Tozasertib + Foretinib = compound: Cc1cc(Nc2cc(N3CCN(C)CC3)nc(Sc3ccc(NC(=O)C4CC4)cc3)n2)n[nH]1 [Tozasertib] + COc1cc2c(Oc3ccc(NC(=O)C4(C(=O)Nc5ccc(F)cc5)CC4)cc3F)ccnc2cc1OCCCN1CCOCC1 [Foretinib] (partner 0.25 µM)
# In short: (§1)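 Relative viability equals treated-well nuclei counts divided by vehicle-well nuclei counts. Counts came from 4× images of lung cancer cell lines grown in 1536-well plates for 5 days after pin-tool dosing on the day after seeding. Dosing used one drug alone or a fixed anchor-drug dose plus five library-drug doses (not always all listed) in √10 steps, and values are medians of duplicate plates.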
# Tozasertib + Phenformin = compound: Cc1cc(Nc2cc(N3CCN(C)CC3)nc(Sc3ccc(NC(=O)C4CC4)cc3)n2)n[nH]1 [Tozasertib] + N=C(N)NC(=N)NCCc1ccccc1 [Phenformin] (partner 250 µM)
# In short: as §1
# Tozasertib + OSI-027 = compound: Cc1cc(Nc2cc(N3CCN(C)CC3)nc(Sc3ccc(NC(=O)C4CC4)cc3)n2)n[nH]1 [Tozasertib] + COc1cccc2cc(-c3nc([C@H]4CC[C@H](C(=O)O)CC4)n4ncnc(N)c34)[nH]c12 [OSI-027] (partner 0.5 µM)
# In short: as §1
# Tozasertib + Dasatinib = compound: Cc1cc(Nc2cc(N3CCN(C)CC3)nc(Sc3ccc(NC(=O)C4CC4)cc3)n2)n[nH]1 [Tozasertib] + Cc1nc(Nc2ncc(C(=O)Nc3c(C)cccc3Cl)s2)cc(N2CCN(CCO)CC2)n1 [Dasatinib] (partner 0.075 µM)
# In short: as §1
# Tozasertib + Luminespib = compound: Cc1cc(Nc2cc(N3CCN(C)CC3)nc(Sc3ccc(NC(=O)C4CC4)cc3)n2)n[nH]1 [Tozasertib] + CCNC(=O)c1noc(-c2cc(C(C)C)c(O)cc2O)c1-c1ccc(CN2CCOCC2)cc1 [Luminespib] (partner 0.01 µM)
# In short: as §1
# Tozasertib + Crizotinib = compound: Cc1cc(Nc2cc(N3CCN(C)CC3)nc(Sc3ccc(NC(=O)C4CC4)cc3)n2)n[nH]1 [Tozasertib] + C[C@@H](Oc1cc(-c2cnn(C3CCNCC3)c2)cnc1N)c1c(Cl)ccc(F)c1Cl [Crizotinib] (partner 1 µM)
# In short: as §1
# Tozasertib + Bortezomib = compound: Cc1cc(Nc2cc(N3CCN(C)CC3)nc(Sc3ccc(NC(=O)C4CC4)cc3)n2)n[nH]1 [Tozasertib] + CC(C)C[C@H](NC(=O)[C@H](Cc1ccccc1)NC(=O)c1cnccn1)B(O)O [Bortezomib] (partner 0.002 µM)
# In short: as §1
# Tozasertib + Navitoclax = compound: Cc1cc(Nc2cc(N3CCN(C)CC3)nc(Sc3ccc(NC(=O)C4CC4)cc3)n2)n[nH]1 [Tozasertib] + CC1(C)CCC(c2ccc(Cl)cc2)=C(CN2CCN(c3ccc(C(=O)NS(=O)(=O)c4ccc(N[C@H](CCN5CCOCC5)CSc5ccccc5)c(S(=O)(=O)C(F)(F)F)c4)cc3)CC2)C1 [Navitoclax] (partner 0.5 µM)
# In short: as §1
# Tozasertib + Linsitinib = compound: Cc1cc(Nc2cc(N3CCN(C)CC3)nc(Sc3ccc(NC(=O)C4CC4)cc3)n2)n[nH]1 [Tozasertib] + C[C@]1(O)C[C@@H](c2nc(-c3ccc4ccc(-c5ccccc5)nc4c3)c3c(N)nccn32)C1 [Linsitinib] (partner 1 µM)
# In short: as §1
# Tozasertib + Alpelisib = compound: Cc1cc(Nc2cc(N3CCN(C)CC3)nc(Sc3ccc(NC(=O)C4CC4)cc3)n2)n[nH]1 [Tozasertib] + Cc1nc(NC(=O)N2CCC[C@H]2C(N)=O)sc1-c1ccnc(C(C)(C)C(F)(F)F)c1 [Alpelisib] (partner 2 µM)
# In short: as §1
# Tozasertib + Olaparib = compound: Cc1cc(Nc2cc(N3CCN(C)CC3)nc(Sc3ccc(NC(=O)C4CC4)cc3)n2)n[nH]1 [Tozasertib] + O=C(c1cc(Cc2n[nH]c(=O)c3ccccc23)ccc1F)N1CCN(C(=O)C2CC2)CC1 [Olaparib] (partner 8 µM)
# In short: as §1
# Tozasertib + Pictilisib = compound: Cc1cc(Nc2cc(N3CCN(C)CC3)nc(Sc3ccc(NC(=O)C4CC4)cc3)n2)n[nH]1 [Tozasertib] + CS(=O)(=O)N1CCN(Cc2cc3nc(-c4cccc5[nH]ncc45)nc(N4CCOCC4)c3s2)CC1 [Pictilisib] (partner 1 µM)
# In short: as §1
# Tozasertib + Lapatinib = compound: Cc1cc(Nc2cc(N3CCN(C)CC3)nc(Sc3ccc(NC(=O)C4CC4)cc3)n2)n[nH]1 [Tozasertib] + CS(=O)(=O)CCNCc1ccc(-c2ccc3ncnc(Nc4ccc(OCc5cccc(F)c5)c(Cl)c4)c3c2)o1 [Lapatinib] (partner 2 µM)
# In short: as §1
cell line,measurement,setting,value
NCI-H1623,relative viability,Tozasertib; 0.004 µM,0.859
same,relative viability,Tozasertib; 0.01265 µM,0.965
same,relative viability,Tozasertib; 0.04 µM,0.966
same,relative viability,"Tozasertib; 0.1 µM, anchor plate",0.434
same,relative viability,Tozasertib; 0.1265 µM,0.929
same,relative viability,Tozasertib + Foretinib; first compound 0.004 µM,0.781
same,relative viability,Tozasertib + Foretinib; first compound 0.01265 µM,0.829
same,relative viability,Tozasertib + Foretinib; first compound 0.04 µM,0.898
same,relative viability,Tozasertib + Foretinib; first compound 0.1265 µM,0.761
same,relative viability,Tozasertib + Phenformin; first compound 0.004 µM,0.552
same,relative viability,Tozasertib + Phenformin; first compound 0.01265 µM,0.541
same,relative viability,Tozasertib + Phenformin; first compound 0.04 µM,0.583
same,relative viability,Tozasertib + Phenformin; first compound 0.1265 µM,0.526
same,relative viability,Tozasertib + OSI-027; first compound 0.004 µM,0.45
same,relative viability,Tozasertib + OSI-027; first compound 0.01265 µM,0.428
same,relative viability,Tozasertib + OSI-027; first compound 0.04 µM,0.487
same,relative viability,Tozasertib + OSI-027; first compound 0.1265 µM,0.453
same,relative viability,Tozasertib + Dasatinib; first compound 0.004 µM,0.549
same,relative viability,Tozasertib + Dasatinib; first compound 0.01265 µM,0.515
same,relative viability,Tozasertib + Dasatinib; first compound 0.04 µM,0.536
same,relative viability,Tozasertib + Dasatinib; first compound 0.1265 µM,0.556
same,relative viability,Tozasertib + Luminespib; first compound 0.004 µM,0.43
same,relative viability,Tozasertib + Luminespib; first compound 0.04 µM,0.473
same,relative viability,Tozasertib + Luminespib; first compound 0.1265 µM,0.505
EBC-1,relative viability,Tozasertib; 0.004 µM,1.12
same,relative viability,Tozasertib; 0.01265 µM,1.01
same,relative viability,Tozasertib; 0.04 µM,1.01
same,relative viability,Tozasertib; 0.1265 µM,0.776
same,relative viability,Tozasertib + Foretinib; first compound 0.004 µM,0.111
same,relative viability,Tozasertib + Foretinib; first compound 0.01265 µM,0.0987
same,relative viability,Tozasertib + Foretinib; first compound 0.04 µM,0.109
same,relative viability,Tozasertib + Foretinib; first compound 0.1265 µM,0.105
same,relative viability,Tozasertib + Crizotinib; first compound 0.004 µM,0.234
same,relative viability,Tozasertib + Crizotinib; first compound 0.01265 µM,0.202
same,relative viability,Tozasertib + Crizotinib; first compound 0.04 µM,0.198
same,relative viability,Tozasertib + Crizotinib; first compound 0.1265 µM,0.151
same,relative viability,Tozasertib + Bortezomib; first compound 0.004 µM,0.692
same,relative viability,Tozasertib + Bortezomib; first compound 0.01265 µM,0.461
same,relative viability,Tozasertib + Bortezomib; first compound 0.04 µM,0.532
same,relative viability,Tozasertib + Bortezomib; first compound 0.1265 µM,0.367
same,relative viability,Tozasertib + Navitoclax; first compound 0.004 µM,0.351
same,relative viability,Tozasertib + Navitoclax; first compound 0.01265 µM,0.329
same,relative viability,Tozasertib + Navitoclax; first compound 0.04 µM,0.372
same,relative viability,Tozasertib + Navitoclax; first compound 0.1265 µM,0.251
same,relative viability,Tozasertib + Linsitinib; first compound 0.004 µM,0.866
same,relative viability,Tozasertib + Linsitinib; first compound 0.01265 µM,0.841
same,relative viability,Tozasertib + Linsitinib; first compound 0.04 µM,0.886
same,relative viability,Tozasertib + Linsitinib; first compound 0.1265 µM,0.486
same,relative viability,Tozasertib + Alpelisib; first compound 0.004 µM,0.814
same,relative viability,Tozasertib + Alpelisib; first compound 0.01265 µM,0.801
same,relative viability,Tozasertib + Alpelisib; first compound 0.1265 µM,0.578
same,relative viability,Tozasertib + Olaparib; first compound 0.004 µM,0.697
same,relative viability,Tozasertib + Olaparib; first compound 0.01265 µM,0.724
same,relative viability,Tozasertib + Olaparib; first compound 0.04 µM,0.737
same,relative viability,Tozasertib + Olaparib; first compound 0.1265 µM,0.608
same,relative viability,Tozasertib + Pictilisib; first compound 0.004 µM,0.429
same,relative viability,Tozasertib + Pictilisib; first compound 0.01265 µM,0.333
same,relative viability,Tozasertib + Pictilisib; first compound 0.04 µM,0.371
same,relative viability,Tozasertib + Pictilisib; first compound 0.1265 µM,0.39
same,relative viability,Tozasertib + Lapatinib; first compound 0.004 µM,0.237
same,relative viability,Tozasertib + Lapatinib; first compound 0.01265 µM,0.213
same,relative viability,Tozasertib + Lapatinib; first compound 0.04 µM,0.209
same,relative viability,Tozasertib + Lapatinib; first compound 0.1265 µM,0.173

# From the supplement of paper PMC10307832
